# Experiments:
# Format in all cases: cell-based
# [1] = biological target: AXL (Homo sapiens (Human), UniProt P30530); experiment: AXL autophosphorylation ELISA in A-172 cells; settings: cellular, Gas6 stimulated
# Experimental: A-172 glioblastoma cells (ATCC #CRL-1620) were seeded at 2.5×10^5 cells/well onto 24-well plates (Greiner #662165), in DMEM (Thermo Fisher #11995-040) containing 10% FBS (Thermo Fisher #26140-079), 1% MEM NEAA (Thermo Fisher #11140-050), 1% GlutaMax (Thermo Fisher #35050-061) and 1% Penicillin Streptomycin (Thermo Fisher #15140-122). A-172 cells were incubated at 37° C., 5% CO2 for 24 h and then starved for 24 h in serum-free medium. Test compounds were serially diluted to produce an 8-point dose curve in fresh serum-free medium to a final concentration of 0.3% DMSO (vehicle) and added to the cells and incubated for 1 h. Cells were then stimulated with 1 μg/mL recombinant human Gas6 (R&D Systems #885-GSB-500) for 15 min, washed with cold PBS and immediately lysed with 150 μL of cold 1× lysis buffer [20 mM Tris, 137 mM sodium chloride, 2 mM EDTA, 10% glycerol, 1% NP-40 alternative, 1 mM activated sodium orthovanadate, 1 mM PefaBloc SC (Sigma-Aldrich #11429868001), protease/phosphatase inhibitor tablet (Thermo Fisher #A32959)]. Lysates were collected and 100 μL/well added into the human phospho-AXL DuoSet IC ELISA (R&D Systems #DYC2228-2). Assay was performed according to manufacturer's instructions and sample phospho-AXL concentrations were extrapolated using human phospho-AXL control (R&D Systems #841645) as a standard. Positive control wells (100% activity) contained Gash-stimulated, DMSO-treated cell lysates. Negative control wells (0% activity) contained Gash-stimulated, reference inhibitor-treated cell lysates. IC50 values were calculated by nonlinear regression analysis using a 4-parameter logistic curve fit in ActivityBase XE (IDBS).
# [2] = biological target: Met (Homo sapiens (Human), UniProt P08581); experiment: Met autophosphorylation ELISA in PC-3 cells; settings: cellular, HGF stimulated, read-out: c-Met IC50
# Experimental: PC-3 prostate cancer cells (ATCC #CRL-1435) were seeded at 4×10^4 cells/well onto 24-well plates (Greiner #662165), in DMEM (Thermo Fisher #11995-040) containing 10% FBS (Thermo Fisher #26140-079), 1% MEM NEAA (Thermo Fisher #11140-050), 1% GlutaMax (Thermo Fisher #35050-061), and 1% Penicillin Streptomycin (Thermo Fisher #15140-122). PC-3 cells were incubated at 37° C., 5% CO2 for 24 h and then starved for 3 h in serum-free medium. Test compounds were serially diluted to produce an 8-point dose curve in fresh serum-free medium to a final concentration of 0.3% DMSO (vehicle) and added to the cells and incubated for 1 h. Cells were then stimulated with 100 ng/mL recombinant human HGF (R&D Systems #294-HG-250) for 10 min, washed with cold PBS and immediately lysed with 130 μL of cold 1× lysis buffer [20 mM Tris, 137 mM sodium chloride, 2 mM EDTA, 10% glycerol, 1% NP-40 alternative, 1 mM activated sodium orthovanadate, 1 mM PefaBloc SC (Sigma-Aldrich #11429868001), protease/phosphatase inhibitor tablet (Thermo Fisher #A32959)]. Lysates were clarified by centrifugation and 100 μL/well added into the PathScan phospho-Met (panTyr) Sandwich ELISA (Cell Signaling Technology #7333). Assay was performed according to manufacturer's instructions. Positive control wells (100% activity) contained HGF-stimulated, DMSO-treated cell lysates. Negative control wells (0% activity) contained HGF-stimulated, reference inhibitor-treated cell lysates. IC50 values were calculated by nonlinear regression analysis using a 4-parameter logistic curve fit in ActivityBase XE (IDBS).
# [3] = biological target: KDR (Homo sapiens (Human), UniProt P35968); experiment: KDR autophosphorylation ELISA in HUVEC cells; settings: cellular, VEGF165 stimulated
# Experimental: Human umbilical vein endothelial cells or HUVEC (Lonza #C2519A) were seeded at 2×10^4 cells/well onto 96-well plates (Corning #3904), in EGM-2 growth medium (Lonza #CC-3162) containing 1% Penicillin Streptomycin (Thermo Fisher #15140-122). HUVEC cells were incubated at 37° C., 5% CO2 for 24 h and then starved for 24 h in serum-free EBM-2 basal medium (Lonza #CC-3156) containing 1% Penicillin Streptomycin. Test compounds were serially diluted to produce an 8-point dose curve in fresh serum-free medium to a final concentration of 0.3% DMSO (vehicle) and added to the cells and incubated for 1 h. Cells were then stimulated with 100 ng/mL recombinant human VEGF165 (R&D Systems #293-VE-500) for 5 min, washed with cold PBS, and immediately lysed with 130 μL of cold 1× lysis buffer [20 mM Tris, 137 mM sodium chloride, 2 mM EDTA, 10% glycerol, 1% NP-40 alternative, 1 mM activated sodium orthovanadate, 1 mM PefaBloc SC (Sigma-Aldrich #11429868001), protease/phosphatase inhibitor tablet (Thermo Fisher #A32959)]. Lysates were collected and 100 μL/well added into the human phospho-KDR DuoSet IC ELISA (R&D Systems #DYC1766-2). Assay was performed according to manufacturer's instructions and sample phospho-KDR concentrations were extrapolated using human phospho-KDR control (R&D Systems #841421) as a standard. Positive control wells (100% activity) contained VEGF165-stimulated, DMSO-treated cell lysates. Negative control wells (0% activity) contained non-stimulated cell lysates. IC50 values were calculated by nonlinear regression analysis using a 4-parameter logistic curve fit in ActivityBase XE (IDBS).
# AXL, sequence (P30530 26-894): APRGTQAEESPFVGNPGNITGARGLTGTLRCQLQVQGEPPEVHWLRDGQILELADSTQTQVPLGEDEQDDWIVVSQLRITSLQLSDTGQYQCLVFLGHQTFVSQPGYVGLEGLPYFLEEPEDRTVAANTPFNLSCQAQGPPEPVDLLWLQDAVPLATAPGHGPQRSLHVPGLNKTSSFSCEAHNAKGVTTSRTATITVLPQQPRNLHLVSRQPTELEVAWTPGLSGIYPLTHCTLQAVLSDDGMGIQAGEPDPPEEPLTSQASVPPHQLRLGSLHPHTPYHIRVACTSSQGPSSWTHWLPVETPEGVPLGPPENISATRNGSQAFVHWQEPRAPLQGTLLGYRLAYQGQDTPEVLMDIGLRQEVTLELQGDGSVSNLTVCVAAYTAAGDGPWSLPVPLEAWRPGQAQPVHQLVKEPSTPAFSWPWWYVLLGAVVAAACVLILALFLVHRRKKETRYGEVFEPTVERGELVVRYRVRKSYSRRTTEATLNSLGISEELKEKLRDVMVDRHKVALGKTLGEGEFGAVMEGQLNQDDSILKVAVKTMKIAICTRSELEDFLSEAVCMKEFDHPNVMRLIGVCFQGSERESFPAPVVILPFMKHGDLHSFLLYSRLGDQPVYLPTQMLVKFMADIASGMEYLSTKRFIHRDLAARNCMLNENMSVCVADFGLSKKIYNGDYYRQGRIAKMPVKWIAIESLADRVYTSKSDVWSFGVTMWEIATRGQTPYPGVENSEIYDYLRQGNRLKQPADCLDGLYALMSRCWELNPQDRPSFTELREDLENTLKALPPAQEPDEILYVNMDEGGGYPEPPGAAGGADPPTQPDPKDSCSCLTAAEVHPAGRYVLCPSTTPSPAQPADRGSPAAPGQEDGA
# KDR, sequence (P35968 20-1356): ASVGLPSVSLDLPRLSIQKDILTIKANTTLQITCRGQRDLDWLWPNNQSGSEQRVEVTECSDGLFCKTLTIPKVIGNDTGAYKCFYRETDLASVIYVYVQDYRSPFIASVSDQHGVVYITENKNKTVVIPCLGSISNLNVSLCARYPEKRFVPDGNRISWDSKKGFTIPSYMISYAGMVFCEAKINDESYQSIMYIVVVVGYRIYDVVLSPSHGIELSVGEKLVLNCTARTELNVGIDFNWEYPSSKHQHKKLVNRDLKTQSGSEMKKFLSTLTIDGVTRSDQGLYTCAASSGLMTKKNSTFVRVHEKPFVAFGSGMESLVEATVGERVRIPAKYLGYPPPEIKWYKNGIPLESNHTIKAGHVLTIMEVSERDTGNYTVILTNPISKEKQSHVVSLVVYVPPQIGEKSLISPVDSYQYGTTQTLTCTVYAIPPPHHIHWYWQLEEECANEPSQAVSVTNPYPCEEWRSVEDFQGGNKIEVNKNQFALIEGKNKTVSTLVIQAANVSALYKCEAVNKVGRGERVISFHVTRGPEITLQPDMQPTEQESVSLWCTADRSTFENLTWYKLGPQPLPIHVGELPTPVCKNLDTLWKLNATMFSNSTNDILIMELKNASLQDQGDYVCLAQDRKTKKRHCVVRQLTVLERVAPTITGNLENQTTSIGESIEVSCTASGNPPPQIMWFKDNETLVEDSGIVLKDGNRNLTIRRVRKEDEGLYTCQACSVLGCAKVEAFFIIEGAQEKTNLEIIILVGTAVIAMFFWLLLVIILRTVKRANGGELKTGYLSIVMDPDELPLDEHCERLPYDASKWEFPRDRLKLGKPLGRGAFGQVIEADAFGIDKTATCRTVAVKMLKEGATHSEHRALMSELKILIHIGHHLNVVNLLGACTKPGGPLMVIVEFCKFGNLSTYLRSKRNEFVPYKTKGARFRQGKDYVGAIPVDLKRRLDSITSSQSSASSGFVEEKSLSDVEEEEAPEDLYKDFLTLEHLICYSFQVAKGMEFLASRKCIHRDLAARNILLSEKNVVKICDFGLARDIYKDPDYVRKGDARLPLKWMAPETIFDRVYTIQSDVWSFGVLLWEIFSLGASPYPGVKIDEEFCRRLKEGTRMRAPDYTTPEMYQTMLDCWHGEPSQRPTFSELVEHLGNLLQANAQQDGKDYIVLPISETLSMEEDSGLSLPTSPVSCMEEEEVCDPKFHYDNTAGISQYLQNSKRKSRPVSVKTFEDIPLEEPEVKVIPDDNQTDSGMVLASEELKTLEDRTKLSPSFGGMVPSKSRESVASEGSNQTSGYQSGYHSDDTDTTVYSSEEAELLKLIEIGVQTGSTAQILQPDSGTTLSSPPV
# Met, sequence (P08581 25-1390): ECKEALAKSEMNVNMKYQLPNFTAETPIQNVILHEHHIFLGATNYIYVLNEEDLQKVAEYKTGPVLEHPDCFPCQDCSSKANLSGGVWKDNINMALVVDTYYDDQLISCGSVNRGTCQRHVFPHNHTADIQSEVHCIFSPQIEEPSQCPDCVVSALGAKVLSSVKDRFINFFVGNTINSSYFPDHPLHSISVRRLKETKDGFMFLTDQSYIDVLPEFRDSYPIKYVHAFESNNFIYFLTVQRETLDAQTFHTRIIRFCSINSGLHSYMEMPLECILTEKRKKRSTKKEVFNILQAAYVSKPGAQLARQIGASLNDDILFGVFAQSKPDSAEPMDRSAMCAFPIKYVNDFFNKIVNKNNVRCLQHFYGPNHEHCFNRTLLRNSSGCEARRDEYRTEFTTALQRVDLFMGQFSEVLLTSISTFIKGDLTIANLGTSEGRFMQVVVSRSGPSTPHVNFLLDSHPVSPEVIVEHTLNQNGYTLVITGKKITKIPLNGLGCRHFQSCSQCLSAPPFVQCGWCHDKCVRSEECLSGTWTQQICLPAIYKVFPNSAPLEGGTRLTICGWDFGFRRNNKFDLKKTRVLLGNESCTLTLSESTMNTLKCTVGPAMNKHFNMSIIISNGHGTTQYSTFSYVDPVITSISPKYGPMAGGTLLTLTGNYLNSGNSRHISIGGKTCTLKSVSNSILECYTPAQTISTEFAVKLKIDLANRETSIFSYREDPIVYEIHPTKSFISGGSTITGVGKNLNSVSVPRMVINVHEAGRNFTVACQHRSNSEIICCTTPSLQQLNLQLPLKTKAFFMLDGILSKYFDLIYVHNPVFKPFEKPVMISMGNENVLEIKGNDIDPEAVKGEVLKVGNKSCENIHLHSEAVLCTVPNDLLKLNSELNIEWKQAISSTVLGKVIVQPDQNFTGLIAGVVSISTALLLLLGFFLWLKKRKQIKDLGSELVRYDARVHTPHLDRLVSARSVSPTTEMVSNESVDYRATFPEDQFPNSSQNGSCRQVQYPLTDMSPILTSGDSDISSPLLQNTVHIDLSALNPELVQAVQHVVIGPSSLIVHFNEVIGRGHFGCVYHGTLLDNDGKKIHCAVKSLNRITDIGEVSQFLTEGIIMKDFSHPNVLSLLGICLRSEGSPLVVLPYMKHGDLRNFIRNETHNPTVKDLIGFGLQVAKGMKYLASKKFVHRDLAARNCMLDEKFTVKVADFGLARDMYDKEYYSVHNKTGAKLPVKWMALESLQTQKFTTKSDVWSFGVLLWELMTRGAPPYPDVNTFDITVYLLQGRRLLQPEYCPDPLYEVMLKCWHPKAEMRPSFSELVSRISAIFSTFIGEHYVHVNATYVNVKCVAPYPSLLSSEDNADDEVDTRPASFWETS
SMILES,IC50 [1] [nM],IC50 [2] [nM],IC50 [3] [nM]
"CO/N=C/c1cc2c(Oc3ccc(NC(=O)C4(C(=O)Nc5ccc(F)cc5)CC4)cc3)ccnc2cc1OC [Compound 193, 1-N′-(4-Fluorophenyl)-1-N-[4-[7-methoxy-6-[(E)-methoxyiminomethyl]quinolin-4-yl]oxyphenyl]cyclopropane-1,1-dicarboxamide]",10 to 100,100 to 300,100 to 300
"O=C(Nc1ccc(F)cc1)C1(C(=O)Nc2ccc(Oc3ccnc4ccc(-c5ccn[nH]5)cc34)cc2)CC1 [Compound 204, 1-N′-(4-Fluorophenyl)-1-N-[4-[6-(1H-pyrazol-5-yl)quinolin-4-yl]oxyphenyl]cyclopropane-1,1-dicarboxamide]",10 to 100,10 to 100,10 to 100
"NS(=O)(=O)c1ccc2nccc(Oc3ccc(NC(=O)C4(C(=O)Nc5ccc(F)cc5)CC4)cc3)c2c1 [Compound 209, 1-N′-(4-Fluorophenyl)-1-N-[4-(6-sulfamoylquinolin-4-yl)oxyphenyl]cyclopropane-1,1-dicarboxamide]",100 to 300,100 to 300,10 to 100
"O=C(Nc1ccc(F)cc1)C1(C(=O)Nc2ccc(Oc3ccnc4ccc(-c5nnco5)cc34)cc2)CC1 [Compound 221, 1-N′-(4-Fluorophenyl)-1-N-[4-[6-(1,3,4-oxadiazol-2-yl)quinolin-4-yl]oxyphenyl]cyclopropane-1,1-dicarboxamide]",10 to 100,100 to 300,100 to 300
"NS(=O)(=O)c1ccc2c(Oc3ccc(NC(=O)C4(C(=O)Nc5ccc(F)cc5)CC4)cc3)ccnc2c1 [Compound 254, 1-N′-(4-Fluorophenyl)-1-N-[4-(7-sulfamoylquinolin-4-yl)oxyphenyl]cyclopropane-1,1-dicarboxamide]",100 to 300,100 to 300,> 300
"CC(=O)c1ccc2c(Oc3ccc(NC(=O)C4(C(=O)Nc5ccc(F)cc5)CC4)cc3)ccnc2c1 [Compound 255, 1-N-[4-(7-Acetylquinolin-4-yl)oxyphenyl]-1-N′-(4-fluorophenyl)cyclopropane-1,1-dicarboxamide]",> 300,100 to 300,> 300
"CO/N=C(\C)c1ccc2c(Oc3ccc(NC(=O)C4(C(=O)Nc5ccc(F)cc5)CC4)cc3)ccnc2c1 [Compound 256, 1-N′-(4-Fluorophenyl)-1-N-[4-[7-[(E)-N-methoxy-C-methylcarbonimidoyl]quinolin-4-yl]oxyphenyl]cyclopropane-1,1-dicarboxamide]",100 to 300,100 to 300,100 to 300
"CNC(=O)c1cc2c(Oc3ccc(NC(=O)C4(C(=O)N(C)c5ccc(F)cc5)CC4)cc3F)ccnc2cc1OC [Compound 262, 1-N-[3-Fluoro-4-[7-methoxy-6-(methylcarbamoyl)quinolin-4-yl]oxyphenyl]-1-N′-(4-fluorophenyl)-1-N′-methylcyclopropane-1,1-dicarboxamide]",> 300,> 300,> 300
"CNC(=O)c1cc2c(Oc3ccc(NC(=O)C4(C(=O)N(C)c5ccc(F)cc5)CC4)cc3)ccnc2cc1OC [Compound 263, 1-N′-(4-Fluorophenyl)-1-N-[4-[7-methoxy-6-(methylcarbamoyl)quinolin-4-yl]oxyphenyl]-1-N′-methylcyclopropane-1,1-dicarboxamide]",> 300,> 300,> 300
"CNC(=O)c1cc2c(Oc3ccc(NC(=O)C4(C(=O)Nc5c(C)cc(F)cc5C)CC4)cc3F)ccnc2cc1OC [Compound 267, 1-N′-(4-Fluoro-2,6-dimethylphenyl)-1-N-[3-fluoro-4-[7-methoxy-6-(methylcarbamoyl)quinolin-4-yl]oxyphenyl]cyclopropane-1,1-dicarboxamide]",10 to 100,100 to 300,100 to 300
"CNC(=O)c1cc2c(Oc3ccc(NC(=O)C4(C(=O)Nc5ccc(C(F)(F)F)cc5)CC4)cc3F)ccnc2cc1OC [Compound 273, 1-N′-[3-Fluoro-4-[7-methoxy-6-(methylcarbamoyl)quinolin-4-yl]oxyphenyl]-1-N-[4-(trifluoromethyl)phenyl]cyclopropane-1,1-dicarboxamide]",100 to 300,100 to 300,10 to 100
"CNC(=O)Nc1ccc2c(Oc3ccc(NC(=O)C4(C(=O)Nc5ccc(F)cc5)CC4)cc3)ccnc2c1 [Compound 281, 1-N′-(4-Fluorophenyl)-1-N-[4-[7-(methylcarbamoylamino)quinolin-4-yl]oxyphenyl]cyclopropane-1,1-dicarboxamide]",100 to 300,10 to 100,100 to 300
"COC(=O)Nc1ccc2c(Oc3ccc(NC(=O)C4(C(=O)Nc5ccc(F)cc5)CC4)cc3)ccnc2c1 [Compound 282, Methyl N-[4-[4-[[1-[(4-fluorophenyl)carbamoyl]cyclopropanecarbonyl]-amino]phenoxy]quinolin-7-yl]carbamate]",100 to 300,100 to 300,> 300

# Reference: US11542259B2, “Compounds for the treatment of kinase-dependent disorders” (Exelixis, Inc., priority 2018, dated 2023)
